Legend:
[1] = biological target: T1, Calcitonin receptor (Homo sapiens, UniProt P30988); assay type: cell membranes, Membrane; details: t47d; also: in other assays of this panel Not Active means under 50% inhibition at 10 µM
T1 sequence (P30988 whole entry): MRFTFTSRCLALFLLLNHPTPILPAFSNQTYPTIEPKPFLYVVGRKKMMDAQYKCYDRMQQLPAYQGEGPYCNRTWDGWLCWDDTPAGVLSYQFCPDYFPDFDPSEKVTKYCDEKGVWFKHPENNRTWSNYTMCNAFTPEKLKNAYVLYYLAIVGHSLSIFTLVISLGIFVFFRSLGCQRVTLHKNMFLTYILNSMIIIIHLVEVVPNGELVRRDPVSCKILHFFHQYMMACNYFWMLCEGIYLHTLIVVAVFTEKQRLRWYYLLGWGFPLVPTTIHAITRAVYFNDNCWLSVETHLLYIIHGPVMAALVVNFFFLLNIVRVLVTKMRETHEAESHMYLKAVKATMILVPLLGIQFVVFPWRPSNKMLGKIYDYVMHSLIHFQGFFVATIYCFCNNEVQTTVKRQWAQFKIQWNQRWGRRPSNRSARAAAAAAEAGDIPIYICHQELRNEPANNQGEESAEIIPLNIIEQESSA

[2] = biological target: 5-hydroxytryptamine receptor 2B (Homo sapiens, UniProt P41595); assay type: cell membranes, CHO-K1, Membrane; details: for Ki: read-out: Ki; as to all read-outs here: in other assays of this panel Not Active means under 50% inhibition at 10 µM
[3] = biological target: Substance-P receptor (Homo sapiens, UniProt P25103); assay type: cell membranes, CHO, Membrane; also: in other assays of this panel Not Active means under 50% inhibition at 10 µM
[4] = biological target: T2, Substance-K receptor (Homo sapiens, UniProt P21452); assay type: cell membranes, CHO, Membrane; details: for Ki: read-out: Ki; as to all read-outs here: in other assays of this panel Not Active means under 50% inhibition at 10 µM
T2 sequence (P21452 whole entry): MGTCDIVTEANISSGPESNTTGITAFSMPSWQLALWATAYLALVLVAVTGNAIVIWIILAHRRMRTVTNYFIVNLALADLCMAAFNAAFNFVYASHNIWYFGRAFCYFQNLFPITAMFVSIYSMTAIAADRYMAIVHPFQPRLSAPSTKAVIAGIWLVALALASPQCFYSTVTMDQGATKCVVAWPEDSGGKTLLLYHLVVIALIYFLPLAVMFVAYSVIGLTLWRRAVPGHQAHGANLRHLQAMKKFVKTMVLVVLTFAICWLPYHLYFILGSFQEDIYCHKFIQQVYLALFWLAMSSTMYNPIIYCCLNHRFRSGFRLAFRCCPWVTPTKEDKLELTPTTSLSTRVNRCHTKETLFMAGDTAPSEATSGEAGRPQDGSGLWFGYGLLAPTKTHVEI

[5] = biological target: Carbonic anhydrase 2 (Homo sapiens, UniProt P00918); experiment: DRUGMATRIX: Carbonic Anhydrase II enzyme inhibition (substrate: 4-Nitrophenyl acetate (4-NPA)); assay type: tissue-based, Erythrocyte; details: Not Active = under 50% inhibition at 10 µM
[6] = biological target: T3, C-X-C chemokine receptor type 1 (Homo sapiens, UniProt P25024); also: in other assays of this panel Not Active means under 50% inhibition at 10 µM
T3 sequence (P25024 whole entry): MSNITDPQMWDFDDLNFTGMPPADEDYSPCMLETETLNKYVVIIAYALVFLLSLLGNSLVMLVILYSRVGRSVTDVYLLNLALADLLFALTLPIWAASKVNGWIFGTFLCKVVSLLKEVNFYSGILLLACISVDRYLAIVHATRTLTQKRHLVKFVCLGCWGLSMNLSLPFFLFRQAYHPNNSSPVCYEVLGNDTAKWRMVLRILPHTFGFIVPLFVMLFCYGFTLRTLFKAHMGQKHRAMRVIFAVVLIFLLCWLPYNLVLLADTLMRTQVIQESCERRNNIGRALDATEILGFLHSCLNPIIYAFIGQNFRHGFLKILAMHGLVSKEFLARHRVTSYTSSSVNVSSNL

[7] = biological target: T4, Cysteinyl leukotriene receptor 1 (Homo sapiens, UniProt Q9Y271); assay type: cell membranes, CHO-K1, Membrane; also: in other assays of this panel Not Active means under 50% inhibition at 10 µM
T4 sequence (Q9Y271 whole entry): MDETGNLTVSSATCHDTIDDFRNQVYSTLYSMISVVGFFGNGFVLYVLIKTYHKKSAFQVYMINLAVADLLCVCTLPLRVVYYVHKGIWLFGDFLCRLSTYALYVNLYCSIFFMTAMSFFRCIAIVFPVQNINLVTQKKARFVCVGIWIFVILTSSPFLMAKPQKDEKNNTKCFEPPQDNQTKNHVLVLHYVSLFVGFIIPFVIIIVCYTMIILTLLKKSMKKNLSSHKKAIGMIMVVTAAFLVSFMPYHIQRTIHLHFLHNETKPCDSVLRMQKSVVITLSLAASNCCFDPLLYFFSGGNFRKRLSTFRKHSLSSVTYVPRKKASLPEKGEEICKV

[8] = biological target: T5, Neutrophil elastase (Homo sapiens, UniProt P08246); assay type: tissue-based
T5 sequence (P08246 whole entry): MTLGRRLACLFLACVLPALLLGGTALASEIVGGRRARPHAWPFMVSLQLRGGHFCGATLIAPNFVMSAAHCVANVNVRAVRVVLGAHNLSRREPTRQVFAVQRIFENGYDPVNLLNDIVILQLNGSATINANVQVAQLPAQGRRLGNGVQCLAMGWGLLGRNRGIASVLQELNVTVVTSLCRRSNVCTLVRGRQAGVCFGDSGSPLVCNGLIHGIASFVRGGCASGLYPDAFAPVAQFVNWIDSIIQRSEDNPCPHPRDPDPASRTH

[9] = biological target: Tyrosine-protein kinase Fyn (Homo sapiens, UniProt P06241); experiment: biochemical; assay type: cell-based, Insect cells
[10] = biological target: Tyrosine-protein kinase Lck (Homo sapiens, UniProt P06239); experiment: DRUGMATRIX: Protein Tyrosine Kinase, LCK enzyme inhibition (substrate: Poly(Glu:Tyr)); assay type: cell-based, Insect cells; details: Not Active = under 50% inhibition at 10 µM
[11] = biological target: Cytochrome P450 2E1 (Homo sapiens, UniProt P05181); details: bti-tn-5b1-4; also: in other assays of this panel Not Active means under 50% inhibition at 10 µM
[12] = DRUGMATRIX: Atrial Natriuretic Factor (ANF) radioligand binding (ligand: [125I] ANF (rat)); assay type: cell membranes, Cavia porcellus, Dunkin-Hartley, Adrenal gland, Membrane; details: Not Active = under 50% inhibition at 10 µM
[13] = DRUGMATRIX: Glutamate, AMPA radioligand binding (ligand: [3H] AMPA); assay type: cell membranes, Rattus norvegicus, Wistar, Cerebral cortex, Membrane; details: Not Active = under 50% inhibition at 10 µM
[14] = DRUGMATRIX: Glutamate, NMDA, Agonism radioligand binding (ligand: [3H] CGP-39653); assay type: cell membranes, Rattus norvegicus, Wistar, Cerebral cortex, Membrane; details: Not Active = under 50% inhibition at 10 µM
[15] = DRUGMATRIX: Glutamate, NMDA, Phencyclidine radioligand binding (ligand: [3H] TCP); assay type: cell membranes, Rattus norvegicus, Wistar, Cerebral cortex, Membrane; details: Not Active = under 50% inhibition at 10 µM

Sequence of Cytochrome P450 2E1 (P05181 whole entry): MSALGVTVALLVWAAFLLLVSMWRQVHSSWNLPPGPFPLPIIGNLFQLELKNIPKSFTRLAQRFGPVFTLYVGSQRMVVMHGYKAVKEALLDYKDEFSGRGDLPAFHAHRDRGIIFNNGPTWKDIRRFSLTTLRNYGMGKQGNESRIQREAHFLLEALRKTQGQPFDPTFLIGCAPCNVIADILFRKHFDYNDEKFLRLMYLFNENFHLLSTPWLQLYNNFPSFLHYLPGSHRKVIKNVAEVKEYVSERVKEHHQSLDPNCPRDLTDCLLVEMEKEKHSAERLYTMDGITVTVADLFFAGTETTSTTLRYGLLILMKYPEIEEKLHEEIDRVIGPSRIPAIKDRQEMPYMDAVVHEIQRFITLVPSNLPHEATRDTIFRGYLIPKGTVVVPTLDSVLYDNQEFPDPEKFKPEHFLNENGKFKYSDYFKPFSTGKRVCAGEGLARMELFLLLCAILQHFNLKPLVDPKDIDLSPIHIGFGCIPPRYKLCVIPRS
Sequence of 5-hydroxytryptamine receptor 2B (P41595 whole entry): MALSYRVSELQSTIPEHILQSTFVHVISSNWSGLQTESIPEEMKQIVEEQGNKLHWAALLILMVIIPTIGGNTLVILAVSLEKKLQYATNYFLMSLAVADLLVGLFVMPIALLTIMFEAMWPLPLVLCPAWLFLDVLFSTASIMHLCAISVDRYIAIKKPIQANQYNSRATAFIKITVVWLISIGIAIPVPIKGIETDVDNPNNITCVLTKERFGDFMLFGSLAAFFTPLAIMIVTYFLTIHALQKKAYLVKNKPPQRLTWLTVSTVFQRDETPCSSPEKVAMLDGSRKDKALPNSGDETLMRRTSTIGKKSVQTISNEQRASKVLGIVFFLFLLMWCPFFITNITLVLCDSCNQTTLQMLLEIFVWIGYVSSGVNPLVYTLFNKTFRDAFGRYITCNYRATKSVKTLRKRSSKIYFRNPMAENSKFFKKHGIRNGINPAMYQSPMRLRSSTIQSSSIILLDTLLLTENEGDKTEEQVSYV
Sequence of Tyrosine-protein kinase Lck (P06239 whole entry): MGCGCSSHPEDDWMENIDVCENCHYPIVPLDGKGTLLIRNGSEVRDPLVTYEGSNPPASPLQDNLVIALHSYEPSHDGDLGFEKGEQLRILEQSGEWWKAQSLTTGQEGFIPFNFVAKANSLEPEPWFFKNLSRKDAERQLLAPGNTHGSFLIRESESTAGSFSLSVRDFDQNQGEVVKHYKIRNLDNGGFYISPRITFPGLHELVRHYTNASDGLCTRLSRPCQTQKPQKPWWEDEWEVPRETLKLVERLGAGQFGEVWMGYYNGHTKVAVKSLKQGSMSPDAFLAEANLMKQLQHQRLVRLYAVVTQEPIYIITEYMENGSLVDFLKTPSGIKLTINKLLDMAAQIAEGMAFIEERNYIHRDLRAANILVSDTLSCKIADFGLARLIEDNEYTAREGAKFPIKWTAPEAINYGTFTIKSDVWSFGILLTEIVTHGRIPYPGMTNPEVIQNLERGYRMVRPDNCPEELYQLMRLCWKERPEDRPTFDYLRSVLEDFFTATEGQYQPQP
Sequence of Substance-P receptor (P25103 whole entry): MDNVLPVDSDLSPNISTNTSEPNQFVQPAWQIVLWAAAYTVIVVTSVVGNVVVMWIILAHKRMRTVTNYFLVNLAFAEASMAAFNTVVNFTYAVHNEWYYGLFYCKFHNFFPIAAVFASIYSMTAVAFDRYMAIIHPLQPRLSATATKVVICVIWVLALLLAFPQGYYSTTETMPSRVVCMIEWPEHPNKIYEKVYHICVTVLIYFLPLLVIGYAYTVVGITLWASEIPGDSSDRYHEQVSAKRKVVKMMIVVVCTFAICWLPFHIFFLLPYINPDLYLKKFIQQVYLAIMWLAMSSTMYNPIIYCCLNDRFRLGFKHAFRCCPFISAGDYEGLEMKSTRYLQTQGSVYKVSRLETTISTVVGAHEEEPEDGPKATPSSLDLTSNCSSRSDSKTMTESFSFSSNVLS
Sequence of Tyrosine-protein kinase Fyn (P06241 whole entry): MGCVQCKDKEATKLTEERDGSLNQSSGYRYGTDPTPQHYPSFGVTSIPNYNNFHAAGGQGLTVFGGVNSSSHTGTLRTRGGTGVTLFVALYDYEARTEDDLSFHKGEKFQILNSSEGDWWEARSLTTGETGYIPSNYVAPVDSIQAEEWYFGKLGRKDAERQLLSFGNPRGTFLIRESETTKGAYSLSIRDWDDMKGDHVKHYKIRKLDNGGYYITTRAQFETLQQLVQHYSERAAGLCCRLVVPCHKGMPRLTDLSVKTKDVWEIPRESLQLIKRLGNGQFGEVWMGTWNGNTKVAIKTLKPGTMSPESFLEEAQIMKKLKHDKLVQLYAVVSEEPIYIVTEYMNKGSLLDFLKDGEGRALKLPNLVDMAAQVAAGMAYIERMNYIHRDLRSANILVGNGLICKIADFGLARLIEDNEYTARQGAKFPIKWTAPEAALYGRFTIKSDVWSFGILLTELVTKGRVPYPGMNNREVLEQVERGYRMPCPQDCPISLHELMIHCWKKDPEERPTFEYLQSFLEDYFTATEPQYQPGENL

COc1cccc(C2(O)CCCCC2CN(C)C)c1 (stereo not given) [TRAMADOL]
IC50 [1]: Not Active | IC50 ([2]; cho-k1): Not Active | IC50 ([3]; cho): Not Active | IC50 ([4]; cho): Not Active | IC50 ([5]; erythrocyte): Not Active | IC50 [6]: Not Active | IC50 ([7]; cho-k1): Not Active | IC50 [8]: Not Active | IC50 ([9]; insect cells): Not Active | IC50 ([10]; insect cells): Not Active | IC50 [11]: Not Active | Ki [11]: Not Active

CN(C)CCCN1c2ccccc2CCc2ccc(Cl)cc21 [CLOMIPRAMINE]
IC50 [1]: Not Active | IC50 ([2]; read-out: IC50): 0.239 µM | Ki [2]: 0.152 µM | IC50 ([3]; cho): Not Active | IC50 ([4]; cho): Not Active | IC50 ([5]; erythrocyte): Not Active | IC50 [6]: Not Active | IC50 ([7]; cho-k1): Not Active | IC50 [8]: Not Active | IC50 ([9]; insect cells): Not Active | IC50 ([10]; insect cells): Not Active | IC50 [11]: Not Active | Ki [11]: Not Active

CC(C)(O)c1ccccc1CC[C@@H](SCC1(CC(=O)O)CC1)c1cccc(/C=C/c2ccc3ccc(Cl)cc3n2)c1 [MONTELUKAST]
IC50 [1]: Not Active | IC50 ([3]; cho): Not Active | IC50 ([4]; read-out: IC50): 3.82 µM | Ki [4]: 1.27 µM | IC50 ([5]; erythrocyte): Not Active | IC50 [6]: Not Active | IC50 [8]: Not Active | IC50 ([9]; read-out: IC50): 4.7 µM | IC50 ([10]; insect cells): Not Active | IC50 [11]: Not Active | Ki [11]: Not Active

COC(=O)C1=C(C)NC(C)=C(C(=O)OC)C1c1ccccc1[N+](=O)[O-] [NIFEDIPINE]
IC50 [12]: Not Active | Ki [12]: Not Active | IC50 [1]: Not Active | IC50 ([2]; cho-k1): Not Active | IC50 ([3]; cho): Not Active | IC50 ([4]; cho): Not Active | IC50 ([5]; erythrocyte): Not Active | IC50 [6]: Not Active | IC50 [13]: Not Active | Ki [13]: Not Active | IC50 [14]: Not Active | Ki [14]: Not Active | IC50 [15]: Not Active | Ki [15]: Not Active | IC50 ([7]; cho-k1): Not Active | IC50 [8]: Not Active | IC50 ([9]; insect cells): Not Active | IC50 ([10]; insect cells): Not Active

Clc1ccccc1C(c1ccccc1)(c1ccccc1)n1ccnc1 [CLOTRIMAZOLE]
IC50 [1]: Not Active | IC50 ([2]; read-out: IC50): 11.6 µM | Ki [2]: 7.38 µM | IC50 ([3]; read-out: IC50): 16 µM | Ki ([3]; read-out: Ki): 8.75 µM | IC50 ([4]; read-out: IC50): 10.1 µM | Ki [4]: 3.38 µM | IC50 ([5]; read-out: IC50): 30.1 µM | IC50 [6]: Not Active | IC50 ([7]; read-out: IC50): 33.2 µM | Ki ([7]; read-out: Ki): 16.6 µM | IC50 [8]: Not Active | IC50 ([9]; read-out: IC50): 31.9 µM | IC50 ([10]; insect cells): Not Active | IC50 [11]: Not Active | Ki [11]: Not Active

CSc1ccc2c(c1)N(CCC1CCCCN1C)c1ccccc1S2 (stereo not given) [THIORIDAZINE]
IC50 [1]: Not Active | IC50 ([3]; cho): Not Active | IC50 ([4]; cho): Not Active | IC50 ([5]; erythrocyte): Not Active | IC50 [6]: Not Active | IC50 ([7]; cho-k1): Not Active | IC50 [8]: Not Active | IC50 ([9]; read-out: IC50): 5.05 µM | IC50 ([10]; insect cells): Not Active | IC50 [11]: Not Active | Ki [11]: Not Active

COc1ccc(CCN2CCC(Nc3nc4ccccc4n3Cc3ccc(F)cc3)CC2)cc1 [ASTEMIZOLE]
IC50 [1]: Not Active | IC50 ([4]; read-out: IC50): 2.99 µM | Ki [4]: 0.995 µM | IC50 ([5]; erythrocyte): Not Active | IC50 [6]: Not Active | IC50 ([7]; cho-k1): Not Active | IC50 [8]: Not Active | IC50 ([9]; read-out: IC50): 2.85 µM | IC50 ([10]; read-out: IC50): 19.9 µM | IC50 [11]: Not Active | Ki [11]: Not Active

COC(=O)[C@@H]1[C@H]2C[C@H]3c4[nH]c5ccccc5c4CCN3C[C@@H]2CC[C@@H]1O [YOHIMBINE]
IC50 [12]: Not Active | Ki [12]: Not Active | IC50 [1]: Not Active | IC50 ([3]; cho): Not Active | IC50 ([4]; cho): Not Active | IC50 ([5]; erythrocyte): Not Active | IC50 [6]: Not Active | IC50 [13]: Not Active | Ki [13]: Not Active | IC50 [14]: Not Active | Ki [14]: Not Active | IC50 [15]: Not Active | Ki [15]: Not Active | IC50 ([7]; cho-k1): Not Active | IC50 [8]: Not Active | IC50 ([9]; insect cells): Not Active | IC50 ([10]; insect cells): Not Active

Nc1ccc(S(N)(=O)=O)cc1 [SULFANILAMIDE]
IC50 [12]: Not Active | Ki [12]: Not Active | IC50 [1]: Not Active | IC50 ([2]; cho-k1): Not Active | IC50 ([3]; cho): Not Active | IC50 ([4]; cho): Not Active | IC50 [6]: Not Active | IC50 [13]: Not Active | Ki [13]: Not Active | IC50 [14]: Not Active | Ki [14]: Not Active | IC50 [15]: Not Active | Ki [15]: Not Active | IC50 ([7]; cho-k1): Not Active | IC50 [8]: Not Active | IC50 ([9]; insect cells): Not Active | IC50 ([10]; insect cells): Not Active | IC50 [11]: Not Active | Ki [11]: Not Active

O=C(CCCN1CCC(O)(c2ccc(Cl)cc2)CC1)c1ccc(F)cc1 [HALOPERIDOL]
IC50 [1]: Not Active | IC50 ([3]; cho): Not Active | IC50 ([4]; cho): Not Active | IC50 ([5]; erythrocyte): Not Active | IC50 [6]: Not Active | IC50 ([7]; cho-k1): Not Active | IC50 [8]: Not Active | IC50 ([9]; insect cells): Not Active | IC50 ([10]; insect cells): Not Active | IC50 [11]: Not Active | Ki [11]: Not Active

CN1CCN2c3ccccc3Cc3ccccc3C2C1 (stereo not given) [MIANSERIN]
IC50 [1]: Not Active | IC50 ([3]; cho): Not Active | IC50 ([4]; cho): Not Active | IC50 ([5]; erythrocyte): Not Active | IC50 [6]: Not Active | IC50 ([7]; cho-k1): Not Active | IC50 [8]: Not Active | IC50 ([9]; insect cells): Not Active | IC50 ([10]; insect cells): Not Active | IC50 [11]: Not Active | Ki [11]: Not Active

— ChEMBL document CHEMBL1909046, “DrugMatrix in vitro pharmacology data”
